How the values were obtained:
Type in all cases: cell-based
[1] = tested on: HeLa (Human cervical carcinoma); assay: in vitro culture cell number, HeLa
Excerpt: (§1) Substances having the structures of the synthesised target material when added to in vitro cultures of various cancer cell lines produced a dose-related cell death as indicated in the Tables below.

[2] = tested on: MOLT4 (Human Tcell leukaemia); assay: in vitro culture cell number, MOLT4
Excerpt: as §1

[3] = tested on: WIL2 (Human B lymphoblastoma); assay: in vitro culture cell number, WIL2
Excerpt: as §1

[4] = tested on: PA-1 (Human ovarian teratocarcinoma); assay: in vitro culture cell number, PA-1
Excerpt: as §1

[5] = tested on: KHOS/NP (Human osteocarcinoma); assay: in vitro culture cell number, KHOS/NP
Excerpt: as §1

[6] = tested on: CaSki (Human cervical epidermoid carcinoma); assay: in vitro culture cell number, CaSki
Excerpt: as §1

[7] = tested on: PC3 (Human prostate adenocarcinoma); assay: in vitro culture cell number, PC3
Excerpt: as §1

[8] = tested on: WiDr (Human colon adenocarcinoma); assay: in vitro culture cell number, WiDr
Excerpt: as §1

[9] = tested on: G361 (Human malignant melanoma); assay: in vitro culture cell number, G361
Excerpt: as §1

[10] = Homo sapiens, 2.0 μg/ml, P < 0.001, read-out: Cell No (% Control)
[11] = Homo sapiens, 5.0 μg/ml, P < 0.001, read-out: Cell No (% Control)
[12] = Homo sapiens, 7.5 μg/ml, P < 0.001, read-out: Cell No (% Control)
[13] = Homo sapiens, 10.0 μg/ml, P < 0.001, read-out: Cell No (% Control)
[14] = Homo sapiens, 20.0 μg/ml, P < 0.001, read-out: Cell No (% Control)

## O=CCC1OCCC1=O (racemic) [Compound 8, (3-ketotetrahydrofuran-2-yl)ethanal]
[1]; 0.5 μg/ml
  Cell No: 12165
[1]; 1.0 μg/ml
  Cell No: 10932
[1]; 1.5 μg/ml
  Cell No: 7453
[1]; 2.0 μg/ml
  Cell No: 4675
[1]; 5.0 μg/ml
  Cell No: 201
[1]; Homo sapiens, 0.5 μg/ml, P < 0.001, read-out: Cell No (% Control)
  activity at 0.5 µg/mL: 83.9%
[1]; Homo sapiens, 1.0 μg/ml, P < 0.001, read-out: Cell No (% Control)
  activity at 1 µg/mL: 75.4%
[1]; Homo sapiens, 1.5 μg/ml, P < 0.001, read-out: Cell No (% Control)
  activity at 1.5 µg/mL: 51.4%
[1]; [10]
  activity at 2 µg/mL: 32.2%
[1]; [11]
  activity at 5 µg/mL: 1.4%
[2]; Homo sapiens, MOLT-4, MOLT4, 0.5 μg/ml, P < 0.001, read-out: Cell No (% Control)
  activity at 0.5 µg/mL: 91.2%
[2]; Homo sapiens, MOLT-4, MOLT4, 1.0 μg/ml, P < 0.001, read-out: Cell No (% Control)
  activity at 1 µg/mL: 78.8%
[2]; Homo sapiens, MOLT-4, MOLT4, 1.5 μg/ml, P < 0.001, read-out: Cell No (% Control)
  activity at 1.5 µg/mL: 53.7%
[2]; Homo sapiens, MOLT-4, MOLT4, 2.0 μg/ml, P < 0.001, read-out: Cell No (% Control)
  activity at 2 µg/mL: 34.2%
[2]; Homo sapiens, MOLT-4, MOLT4, 5.0 μg/ml, P < 0.001, read-out: Cell No (% Control)
  activity at 5 µg/mL: 12.4%
[2]; MOLT4, 0.5 μg/ml
  Cell No: 4543
[2]; MOLT4, 1.0 μg/ml
  Cell No: 3920
[2]; MOLT4, 1.5 μg/ml
  Cell No: 2674
[2]; MOLT4, 2.0 μg/ml
  Cell No: 1701
[2]; MOLT4, 5.0 μg/ml
  Cell No: 619
[3]; Homo sapiens, WIL2, 0.5 μg/ml, P < 0.001, read-out: Cell No (% Control)
  activity at 0.5 µg/mL: 85.3%
[3]; Homo sapiens, WIL2, 1.0 μg/ml, P < 0.001, read-out: Cell No (% Control)
  activity at 1 µg/mL: 58.8%
[3]; Homo sapiens, WIL2, 1.5 μg/ml, P < 0.001, read-out: Cell No (% Control)
  activity at 1.5 µg/mL: 24.9%
[3]; Homo sapiens, WIL2, 2.0 μg/ml, P < 0.001, read-out: Cell No (% Control)
  activity at 2 µg/mL: 16.1%
[3]; Homo sapiens, WIL2, 5.0 μg/ml, P < 0.001, read-out: Cell No (% Control)
  activity at 5 µg/mL: 7.1%
[3]; WIL2, 0.5 μg/ml
  Cell No: 8431
[3]; WIL2, 1.0 μg/ml
  Cell No: 5810
[3]; WIL2, 1.5 μg/ml
  Cell No: 2459
[3]; WIL2, 2.0 μg/ml
  Cell No: 1591
[3]; WIL2, 5.0 μg/ml
  Cell No: 705
[4]; Homo sapiens, PA-1, 0.5 μg/ml, P < 0.001, read-out: Cell No (% Control)
  activity at 0.5 µg/mL: 84.3%
[4]; Homo sapiens, PA-1, 1.0 μg/ml, P < 0.001, read-out: Cell No (% Control)
  activity at 1 µg/mL: 84.9%
[4]; Homo sapiens, PA-1, 1.5 μg/ml, P < 0.001, read-out: Cell No (% Control)
  activity at 1.5 µg/mL: 77.3%
[4]; Homo sapiens, PA-1, 2.0 μg/ml, P < 0.001, read-out: Cell No (% Control)
  activity at 2 µg/mL: 72.4%
[4]; Homo sapiens, PA-1, 5.0 μg/ml, P < 0.001, read-out: Cell No (% Control)
  activity at 5 µg/mL: 20.9%
[4]; PA-1, 0.5 μg/ml
  Cell No: 11346
[4]; PA-1, 1.0 μg/ml
  Cell No: 11276
[4]; PA-1, 1.5 μg/ml
  Cell No: 10338
[4]; PA-1, 2.0 μg/ml
  Cell No: 9678
[4]; PA-1, 5.0 μg/ml
  Cell No: 2729
[5]; 2.0 μg/ml
  Cell No: 9442
[5]; 5.0 μg/ml
  Cell No: 6356
[5]; 7.5 μg/ml
  Cell No: 2469
[5]; 10.0 μg/ml
  Cell No: 862
[5]; 20.0 μg/ml
  Cell No: 380
[5]; [10]
  activity at 2 µg/mL: 84.5%
[5]; [11]
  activity at 5 µg/mL: 56.9%
[5]; [12]
  activity at 7.5 µg/mL: 22.1%
[5]; [13]
  activity at 10 µg/mL: 7.7%
[5]; [14]
  activity at 20 µg/mL: 3.4%
[6]; 2.0 μg/ml
  Cell No: 4401
[6]; 5.0 μg/ml
  Cell No: 4617
[6]; 7.5 μg/ml
  Cell No: 3495
[6]; 10.0 μg/ml
  Cell No: 2800
[6]; 20.0 μg/ml
  Cell No: 234
[6]; Homo sapiens, Ca-Ski, 2.0 μg/ml, P < 0.001, read-out: Cell No (% Control)
  activity at 2 µg/mL: 89.1%
[6]; Homo sapiens, Ca-Ski, 5.0 μg/ml, read-out: Cell No (% Control)
  activity at 5 µg/mL: 93.5%
[6]; Homo sapiens, Ca-Ski, 7.5 μg/ml, P < 0.001, read-out: Cell No (% Control)
  activity at 7.5 µg/mL: 70.8%
[6]; Homo sapiens, Ca-Ski, 10.0 μg/ml, P < 0.001, read-out: Cell No (% Control)
  activity at 10 µg/mL: 56.7%
[6]; Homo sapiens, Ca-Ski, 20.0 μg/ml, P < 0.001, read-out: Cell No (% Control)
  activity at 20 µg/mL: 4.7%
[7]; Homo sapiens, PC-3, PC3, 2.0 μg/ml, P < 0.05, read-out: Cell No (% Control)
  activity at 2 µg/mL: 87.9%
[7]; Homo sapiens, PC-3, PC3, 5.0 μg/ml, P < 0.001, read-out: Cell No (% Control)
  activity at 5 µg/mL: 67.4%
[7]; Homo sapiens, PC-3, PC3, 7.5 μg/ml, P < 0.001, read-out: Cell No (% Control)
  activity at 7.5 µg/mL: 32.9%
[7]; Homo sapiens, PC-3, PC3, 10.0 μg/ml, P < 0.001, read-out: Cell No (% Control)
  activity at 10 µg/mL: 9.3%
[7]; Homo sapiens, PC-3, PC3, 20.0 μg/ml, P < 0.001, read-out: Cell No (% Control)
  activity at 20 µg/mL: 5.9%
[7]; PC3, 2.0 μg/ml
  Cell No: 5908
[7]; PC3, 5.0 μg/ml
  Cell No: 4532
[7]; PC3, 7.5 μg/ml
  Cell No: 2211
[7]; PC3, 10.0 μg/ml
  Cell No: 627
[7]; PC3, 20.0 μg/ml
  Cell No: 399
[8]; 2.0 μg/ml
  Cell No: 5845
[8]; 5.0 μg/ml
  Cell No: 5762
[8]; 7.5 μg/ml
  Cell No: 5097
[8]; 10.0 μg/ml
  Cell No: 3826
[8]; 20.0 μg/ml
  Cell No: 178
[8]; Homo sapiens, 2.0 μg/ml, P < 0.05, read-out: Cell No (% Control)
  activity at 2 µg/mL: 90.9%
[8]; Homo sapiens, 5.0 μg/ml, P < 0.05, read-out: Cell No (% Control)
  activity at 5 µg/mL: 89.6%
[8]; [12]
  activity at 7.5 µg/mL: 79.3%
[8]; [13]
  activity at 10 µg/mL: 59.5%
[8]; [14]
  activity at 20 µg/mL: 2.8%
[9]; G361, 2.0 μg/ml
  Cell No: 1679
[9]; G361, 5.0 μg/ml
  Cell No: 314
[9]; G361, 7.5 μg/ml
  Cell No: 159
[9]; G361, 10.0 μg/ml
  Cell No: 142
[9]; G361, 20.0 μg/ml
  Cell No: 230
[9]; Homo sapiens, G-361, G361, 2.0 μg/ml, P < 0.001, read-out: Cell No (% Control)
  activity at 2 µg/mL: 35.8%
[9]; Homo sapiens, G-361, G361, 5.0 μg/ml, P < 0.001, read-out: Cell No (% Control)
  activity at 5 µg/mL: 6.7%
[9]; Homo sapiens, G-361, G361, 7.5 μg/ml, P < 0.001, read-out: Cell No (% Control)
  activity at 7.5 µg/mL: 3.4%
[9]; Homo sapiens, G-361, G361, 10.0 μg/ml, P < 0.001, read-out: Cell No (% Control)
  activity at 10 µg/mL: 3%
[9]; Homo sapiens, G-361, G361, 20.0 μg/ml, P < 0.001, read-out: Cell No (% Control)
  activity at 20 µg/mL: 4.9%
